# Measurements from patent US9428553B2, “Meditopes and meditope-binding antibodies and uses thereof” (City of Hope, priority 2012, dated 2016).
# Entries after “also recorded” stand apart in the source; their conditions may differ. Where a SMILES comes first, the peptide text is derived from it. Bridges are numbered along the chain shown (N, C = ends). Where no end group is shown, it is not given here.
# Key:
# sEGFRdIII = target: T1, sEGFRdIII (Homo sapiens, UniProt P00533); experiment: FRET titration of labeled cetuximab Fab with labeled sEGFRdIII; format: binding; conditions: in the presence of the cQFD meditope (66 μM)
# T1 construct: soluble epidermal growth factor receptor domain III (sEGFRdIII) were expressed in Sf9 cells; made in house; host or cells: Sf9 cells
# MDA-MB-468 cells [1] = experiment: MTT assay; format: cell-based; conditions: for cell growth: 48-hour incubation, 0.1 μM cetuximab, 0.01, 0.1 and 1 μM meditope or meditope-Fc
# Procedure: 4000 MDA-MB-468 cells were placed in each well of a 96 well plate in 80 μl of medium.
# The assay compared the enhancement of cetuximab-mediated inhibition of antigen-expressing tumor cell growth by meditope-Fc and by M425 (a mouse anti-EGFR antibody). 4000 MDA-MB-468 cells were placed in each well of a 96 well plate in 80 μl of medium. […] After a 48-hour incubation period, 10 μl MTT reagent was added and the mixture allowed to incubate for an additional 4 hours. The culture supernatant was removed, 100 μl of MTT crystal dissolving reagent added, and the plate read at 630 nm.
# cetuximab [2] = experiment: SPR binding affinity as a function of buffer pH; conditions: pH=4.0 to pH=8.0
# Excerpt: FIG. 27 is a graph showing surface plasmon resonance (SPR) studies.
# MDA MB-468 cells = experiment: FACS, cetuximab binding to EGFR-expressing cells in the presence of meditope; format: cell-based; conditions: meditope concentrations greater than 60 μM
# Procedure: Labeled MOPS-21 was used as an isotype control. Cell fluorescence was determined using a FACS Calibur instrument (BD Biosciences).
# cetuximab [3] = experiment: SPR (Biacore T100), variant meditopes over immobilized cetuximab IgG or cetuximab Fab; format: binding; conditions: in words
# Procedure: The final volume after dialysis was carefully measured and absorbance measurements were taken to estimate the concentration (typically 1-10 mM). These stock solutions were used to make dilutions into HBS-EP buffer (10 mM Hepes pH 7.4, 150 mM NaCl, 3 mM EDTA and 0.05% v/v surfactant P20) for SPR measurements. […] Ligands were immobilized at low levels suitable for kinetic data. Typical kinetics SPR experiments were carried out at a flow rate of 30 μL/min using HBS-EP as both running and regeneration buffer. Kinetic parameters were calculated using the Biacore T100 evaluation software version 2.0.1.
# Each chip was first characterized using a soluble fragment of the entire extracellular domain of EGFR (residues 1-621).
# [4] = system: meditope-enabled M5A (M5A 8M); experiment: SPR, meditope variants with meditope-enabled M5A; format: binding; conditions: FIG. 58
# cetuximab Fab = experiment: SPR, meditopes over cetuximab Fab immobilized on CM5 chip; format: binding; conditions: relative to WT cQFD
# Procedure: Affinity analysis by SPR was performed as previously described (Donaldson et al., 2009; Li et al., 2005, supra). […] SEC was performed using a Superdex 200 10/300 column (GE Healthcare). The proteins were mixed, incubated at room temperature for 20 min and applied to the column at 4° C.
# The binding kinetics were also measured (FIG. 3).
# The point mutation and wild type cQFD meditopes were generated as C-terminal fusions to SMT3 and cleaved with Ulp1 before the analysis.
# [5] = system: meditope-enabled trastuzumab (TM); experiment: SPR, MPL linker variants flowed over immobilized TM; conditions: 1:1 langmuir binding model
# Procedure: Protein was purified by affinity and size exclusion chromatography. […] Kinetic information was calculated using Biaevaluation software using a 1:1 langmuir binding model.
# SKBR3 cells = experiment: FACS, antibody and meditope binding to HER2 over-expressing cells; format: cell-based
# Excerpt: Unbound antibody was washed twice and analyzed by flow cytometry.
# MDA-MB-468 cells [6] = experiment: FACS, meditope binding to cetuximab pre-treated EGFR-expressing cells; format: cell-based
# Procedure: In another study, the meditope-Fc fusion protein was labeled with Alexa488 as described above. […] Unbound antibody was washed and the cells were incubated with the meditope-Fc (600 nM, 180 nM, or 60 nM) for 30 minutes.
# T1 sequence (P00533 335-538 limits assumed): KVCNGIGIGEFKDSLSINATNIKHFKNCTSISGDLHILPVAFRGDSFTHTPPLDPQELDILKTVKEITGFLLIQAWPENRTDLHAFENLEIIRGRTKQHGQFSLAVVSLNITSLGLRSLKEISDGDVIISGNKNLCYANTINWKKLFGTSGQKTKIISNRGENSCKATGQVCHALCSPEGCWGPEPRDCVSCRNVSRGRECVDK
molecule,measurement,setting,value
CC(C)C[C@@H]1NC(=O)[C@H](CCCNC(=N)N)NC(=O)[C@H](CCCNC(=N)N)NC(=O)[C@H]([C@@H](C)O)NC(=O)[C@H](CO)NC(=O)[C@H](CC(C)C)NC(=O)[C@H](CC(=O)O)NC(=O)[C@H](Cc2ccccc2)NC(=O)[C@H](CCC(N)=O)NC(=O)[C@@H](N)CSSC[C@@H](C(=O)O)NC(=O)[C@H](CCCCN)NC1=O [Meditope 1],change in the binding constant of the Fab-sEGFRdIII interaction,sEGFRdIII,no substantial change
same,cell growth,MDA-MB-468 cells [1],"Neither addition of monovalent meditope (alone or with cetuximab), or meditope-Fc alone altered cell growth significantly"
same,pH dependence of affinity,cetuximab [2],slightly greater at higher pHs
same,changes in cetuximab binding to the cells,MDA MB-468 cells,no significant changes
CC(C)C[C@@H]1NC(=O)[C@H](C)NC(=O)[C@H](CCCNC(=N)N)NC(=O)[C@H](CO)NC(=O)[C@H](CO)NC(=O)[C@H](CC(C)C)NC(=O)[C@H](CC(N)=O)NC(=O)[C@H](Cc2ccc(O)cc2)NC(=O)[C@H](CCC(N)=O)NC(=O)[C@@H](N)CSSC[C@@H](C(=O)O)NC(=O)[C@H](CCCCN)NC1=O [Meditope 2],affinity compared to cQFD,cetuximab [3],reduced
same,pH dependence of affinity,cetuximab [2],flat pH dependence
same,binding to meditope-enabled antibody,[4],confirming binding
"CC(C)C[C@@H]1NC(=O)[C@H](CCCNC(=N)N)NC(=O)[C@H](CCCNC(=N)N)NC(=O)[C@H]([C@@H](C)O)NC(=O)[C@H](CO)NC(=O)[C@H](CC(C)C)NC(=O)[C@H](CC(=O)O)NC(=O)[C@H](C(c2ccccc2)c2ccccc2)NC(=O)[C@H](CCC(N)=O)NC(=O)[C@@H](N)CSSC[C@@H](C(=O)O)NC(=O)[C@H](CCCCN)NC1=O [Meditope 17, C-QXDLSTRRLK-C]",binding to meditope-enabled antibody,[4],confirming binding
"CC(C)C[C@@H]1NC(=O)[C@H](CCCNC(=N)N)NC(=O)[C@H](CCCNC(=N)N)NC(=O)[C@H]([C@@H](C)O)NC(=O)[C@H](CO)NC(=O)[C@H](C(c2ccccc2)c2ccccc2)NC(=O)[C@H](CC(=O)O)NC(=O)[C@H](Cc2ccccc2)NC(=O)[C@H](CCC(N)=O)NC(=O)[C@@H](N)CSSC[C@@H](C(=O)O)NC(=O)[C@H](CCCCN)NC1=O [Meditope 18, C-QFDXSTRRLK-C]",binding to meditope-enabled antibody,[4],confirming binding
CC(C)C[C@@H]1NC(=O)[C@H](CC(=O)O)NC(=O)[C@H](Cc2ccccc2)NC(=O)[C@H](CCC(N)=O)NC(=O)[C@@H](N)CSSC[C@@H](C(=O)O)NC(=O)[C@H](CCCCN)NC(=O)[C@H](C)NC(=O)[C@H](CCCNC(=N)N)NC(=O)[C@H](CCCNC(=N)N)NC(=O)[C@H]([C@@H](C)O)NC(=O)[C@H](CO)NC1=O [Meditope 29] (H-CQFDLSTRRAKC-OH; disulfide 1-12),ΔΔG,cetuximab Fab,0.63 kcal/mol
CC(C)C[C@@H]1NC(=O)[C@H](CCCNC(=N)N)NC(=O)[C@H](CCCNC(=N)N)NC(=O)[C@H]([C@@H](C)O)NC(=O)[C@H](CO)NC(=O)[C@H](CC(C)C)NC(=O)[C@H](CC(=O)O)NC(=O)[C@H](Cc2ccccc2)NC(=O)[C@H](CCC(N)=O)NC(=O)[C@@H](N)CSSC[C@@H](C(=O)O)NC(=O)[C@H](CCCCN)NC1=O [meditope],"off-rate, kd",[5],0.01641 s⁻¹
same,"on-rate, ka",[5],13250 M⁻¹ s⁻¹
AcC-QFDLSTRRLR-CGGGSK [Meditope 31],binding to meditope-enabled antibody,[4],confirming binding
"C-QYDLSTRRLK-C (CQYDLSTRRLKC; disulfide 1-12) [Meditope 16, Y = tyrosine; Disulfide 1-Cys:12-Cys]",pH dependence of affinity,cetuximab [2],marked decrease in affinity
MPL (L3): meditope SCQFDLSTRRLKC fused to Protein L moiety through linker GGGGS,"off-rate, kd",[5],6.441e-05 s⁻¹
same,"on-rate, ka",[5],383200 M⁻¹ s⁻¹
same,meditope binding to antibody pre-bound cells,SKBR3 cells,tight binding affinity
"Q-FDLSTRRLK-X [Meditope 42, X = 7-aminoheptanoic acid; Lactam 1-Gln: 11-X]",affinity compared to cQFD,cetuximab [3],decreased
"SQFDLSTRRLKS [Meditope 55, No linkage; linear peptide]",affinity compared to cQFD,cetuximab [3],reduced affinity
meditope-Fc: cQFD fused to the N-terminus of an IgG Fc region through a 17 amino acid glycine/serine linker,enhancement of cell-killing capacity of cetuximab,"MDA-MB-468 cells [1]; 0.1 μM cetuximab with 0.2, 0.4 or 0.8 μM agent, 48 hours",enhanced the cell-killing capacity of cetuximab to a similar degree
same,cell growth,MDA-MB-468 cells [1],inhibited cell growth
same,binding to cells pre-treated with cetuximab,MDA-MB-468 cells [6],"higher affinity compared to the meditope monomer; also recorded: bound to the cells incubated with cetuximab, but not to cells incubated with M425"
same,meditope binding to antibody pre-bound cells,SKBR3 cells,"binds to the meditope-enabled trastuzumab, but not to wild-type trastuzumab"
"MPL F3A R8A (L3): MPL mutant weakening the affinity of the meditope portion, linker L3 (protein) SCQADLSTARLKCGGGGSEVTIKVNLIFADGKIQTAEFKGTFEEATAEAYRYAALLAKVNGEYTADLEDGGNHMNIKFAG","off-rate, kd",[5],0.02239 s⁻¹
same,"on-rate, ka",[5],81350 M⁻¹ s⁻¹
same,Kd,"[5]; read-out: Dissociation constant, KD",275 nM
